These results are taken from US11957324B2, “Device and method for preparing and administering one-component fibrin sealant” (Ethicon, Inc., priority 2014, dated 2024).

Experiment [1] deals with T1, fibrin (Homo sapiens, UniProt P02671+P02675+P02679). The experiment can be described thus: Rate of fibrin clot formation at different GPRP concentrations, cessation of flow upon inversion of the tube. It is filed as biochemical. Conditions: 3% fibrin, thrombin 100 IU/ml. The protocol: In the following experiment, the effect of adjusting the concentration of GPRP (SEQ ID NO: 1) inhibitor on fibrin clot formation rate was tested. GPRP (SEQ ID NO: 1) at different concentrations (0.1 mM, 0.2 mM, 0.5 mM, 1 mM, 1.5 mM, 2 mM, 3 mM, 4 mM, and 5 mM) was added to a fibrinogen containing solution (a fixed concentration of 3% w/v, prepared by diluting the BAC2 component of EVICEL® in 40 mM citrate buffer).
T1 sequence (P02671 36-644 isoform P02671-2 limits assumed): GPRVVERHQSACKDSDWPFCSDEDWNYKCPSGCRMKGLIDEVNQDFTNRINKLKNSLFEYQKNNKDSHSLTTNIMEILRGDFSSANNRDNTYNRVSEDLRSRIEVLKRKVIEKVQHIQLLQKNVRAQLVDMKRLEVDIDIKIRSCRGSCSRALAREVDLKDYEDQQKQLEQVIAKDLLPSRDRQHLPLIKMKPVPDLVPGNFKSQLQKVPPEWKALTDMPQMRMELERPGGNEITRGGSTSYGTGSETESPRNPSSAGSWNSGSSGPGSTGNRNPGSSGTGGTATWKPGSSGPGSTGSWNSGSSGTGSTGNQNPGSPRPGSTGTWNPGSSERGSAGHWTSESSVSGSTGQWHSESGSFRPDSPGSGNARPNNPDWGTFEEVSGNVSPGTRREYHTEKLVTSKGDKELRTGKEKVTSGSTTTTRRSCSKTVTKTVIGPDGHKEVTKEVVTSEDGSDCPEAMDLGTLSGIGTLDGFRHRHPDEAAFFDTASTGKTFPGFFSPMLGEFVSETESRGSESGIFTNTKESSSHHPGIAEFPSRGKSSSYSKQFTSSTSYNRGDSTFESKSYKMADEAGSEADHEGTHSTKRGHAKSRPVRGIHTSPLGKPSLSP
T1 sequence (P02675 45-491 limits assumed): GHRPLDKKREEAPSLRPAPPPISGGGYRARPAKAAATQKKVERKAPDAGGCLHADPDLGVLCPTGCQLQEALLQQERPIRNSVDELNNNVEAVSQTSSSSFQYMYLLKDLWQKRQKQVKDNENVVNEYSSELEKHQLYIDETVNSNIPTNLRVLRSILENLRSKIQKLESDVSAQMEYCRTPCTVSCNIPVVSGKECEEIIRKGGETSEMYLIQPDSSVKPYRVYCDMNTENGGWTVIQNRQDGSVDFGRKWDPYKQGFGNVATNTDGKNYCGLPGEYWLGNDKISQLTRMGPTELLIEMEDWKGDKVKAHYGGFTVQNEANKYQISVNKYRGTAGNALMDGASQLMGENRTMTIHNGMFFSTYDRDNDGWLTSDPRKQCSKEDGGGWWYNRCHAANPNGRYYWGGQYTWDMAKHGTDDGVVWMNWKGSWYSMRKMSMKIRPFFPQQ
T1 sequence (P02679 27-437 isoform P02679-2 limits assumed): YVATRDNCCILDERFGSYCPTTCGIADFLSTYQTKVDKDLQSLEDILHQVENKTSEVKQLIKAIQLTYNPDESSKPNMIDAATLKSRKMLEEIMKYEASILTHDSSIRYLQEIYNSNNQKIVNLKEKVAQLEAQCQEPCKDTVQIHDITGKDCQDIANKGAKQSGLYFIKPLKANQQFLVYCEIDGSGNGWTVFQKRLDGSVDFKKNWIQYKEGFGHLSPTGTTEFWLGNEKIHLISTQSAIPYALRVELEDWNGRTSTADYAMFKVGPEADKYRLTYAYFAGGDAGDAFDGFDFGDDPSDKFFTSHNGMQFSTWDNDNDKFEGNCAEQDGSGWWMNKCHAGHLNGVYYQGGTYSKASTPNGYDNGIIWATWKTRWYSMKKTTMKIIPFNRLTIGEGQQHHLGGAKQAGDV
To generate fibrin monomers, dimers and/or oligomers, thrombin was added to the mixture; a 10% volume of the thrombin component of EVICEL® was added to yield a final concentration of 100 international units/ml (IU/ml). The rate of fibrin clot formation was measured by cessation of flow of the mixture upon inversion of the tube.

The target of experiment [2] is T1, fibrin. The description is as above. Particulars: above molar ratio 340:1 GPRP:fibrin (40 mM GPRP at tested fibrinogen concentration). It is filed as biochemical.
The next experiment deals with fibrin clot formation. Conditions: CaCl2 between about 8 mM and about 30 mM; 5-fold zymogen, 3.5% (w/v) fibrinogen, tissue factor and phospholipids.
Another experiment deals with thrombin (Homo sapiens, UniProt P00734). Conditions: cited from earlier work.

As for Gly-Pro-Arg-Pro [GPRP], the Time to clot at fibrin [1] (0.1 mM GPRP) was determined as 5 s; on fibrin [1] (0.2 mM GPRP), 7 s; at fibrin [1] (0.5 mM GPRP) it was 11 s; at fibrin [1] (1 mM GPRP), 13 s; at fibrin [1] (1.5 mM GPRP), 22 s; on fibrin [1] (2 mM GPRP), 28 s. Besides, the figures for the Time to clot on fibrin [1] (3 mM GPRP), on fibrin [1] (4 mM GPRP) and on fibrin [1] (5 mM GPRP) were 150 s, 480 s and 900 s, respectively. In addition, at fibrin [2], the “time for which no polymerization was observed” value is reported as more than 14 days.
In the case of `[Ca+2].[Cl-].[Cl-]` [CaCl2, calcium chloride], in the experiment on fibrin clot formation, the clotting time is less than 20 s.
As for hirudin, the “binds thrombin (affinity)” value at thrombin was “picoM range”.
